Experimental findings from patent US7589123B2, “Chemical compounds” (Phytopharm PLC, priority 2006, dated 2009) are described below.

The target of experiment [1] is T1, 5-lipoxygenase (Homo sapiens, UniProt P09917).
T1 construct: endogenous in cells; host or cells: human peripheral blood mononuclear leukocytes (PBMLs)
T1 sequence (P09917 1-674): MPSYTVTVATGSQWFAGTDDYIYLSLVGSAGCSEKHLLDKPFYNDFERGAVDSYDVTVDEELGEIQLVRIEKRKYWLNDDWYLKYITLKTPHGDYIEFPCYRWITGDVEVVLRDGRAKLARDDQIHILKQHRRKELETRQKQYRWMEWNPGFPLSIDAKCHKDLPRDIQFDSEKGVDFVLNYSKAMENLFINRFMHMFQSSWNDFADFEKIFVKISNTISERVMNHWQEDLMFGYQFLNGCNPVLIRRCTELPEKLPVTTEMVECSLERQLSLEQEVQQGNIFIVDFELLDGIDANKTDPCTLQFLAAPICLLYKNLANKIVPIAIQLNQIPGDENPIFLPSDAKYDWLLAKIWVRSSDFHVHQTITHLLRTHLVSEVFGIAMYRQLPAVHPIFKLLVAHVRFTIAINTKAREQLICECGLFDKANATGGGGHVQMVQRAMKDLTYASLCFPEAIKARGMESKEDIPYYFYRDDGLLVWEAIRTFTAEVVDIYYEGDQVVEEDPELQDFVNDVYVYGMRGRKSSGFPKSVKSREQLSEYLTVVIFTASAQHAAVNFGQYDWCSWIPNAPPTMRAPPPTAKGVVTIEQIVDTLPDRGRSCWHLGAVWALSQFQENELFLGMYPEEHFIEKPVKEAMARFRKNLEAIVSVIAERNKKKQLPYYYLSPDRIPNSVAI
Kind of experiment: 5-lipoxygenase activity (LTB4) in human peripheral blood mononuclear leukocytes (Assay 6). In kind it is cell-based. The note with it: human PBMLs, A23187 30 μM, read-out: Inhibition of 5-LO (%). An outline of the steps: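 Human PBMLs (5×10^6 cells, Ficoll-isolated) stimulated with 30 μM A23187 plus compound at 3 or 30 μM or 0.1% DMSO in HBSS pH 7.4, 37° C., 15 min. After NaOH neutralisation and centrifugation, supernatant LTB4 measured by enzyme immunoassay.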

Experiment [2] deals with histamine-induced contractions in guinea pig ileum. Kind of experiment: Inhibition of histamine-induced contractions in guinea pig ileum (Assay 3). The following applies: Cavia porcellus, histamine 1.7 μM, read-out: Inhibition of histamine-induced contraction (%). An outline of the steps:
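Isolated male guinea pig ileum strips in Krebs at 32° C, pH 7.4, 1 g resting tension, isotonic recording. Contraction to test compound (3 and 30 μM) alone recorded, then inhibition of responses to histamine 1.7 μM or 5-HT 2.6 μM (~EC60-70, 5 min) measured in its continued presence.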

For experiment [3], the system named is α-smooth muscle actin (α-SMA) mRNA. Kind of experiment: Anti-remodelling activity in human lung fibroblasts (HFL1): TGFβ-induced α-SMA mRNA (Assay 4). In kind it is cell-based. The following applies: Homo sapiens, HFL1 cells, TGFβ 10 ng/ml, 24 h, read-out: Inhibition of α-SMA mRNA synthesis (%). An outline of the steps: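 Real-time RT-PCR of α-SMA mRNA, GAPDH as reference, measured after 24 h exposure of low-serum-primed HFL1 cells to 10 ng/ml TGFβ with test compounds (3 and 30 μM) in 10% FBS medium. Readout is inhibition of TGFβ-driven α-SMA mRNA overexpression.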

For experiment [4], the target named is TRPV1 receptor (Rattus norvegicus, UniProt O35433). Kind of experiment: TRPV1 receptor modulation in the rat vas deferens, EFS-induced contraction (Assay 1). The note with it: electrical field stimulation, read-out: Inhibition of EFS response relative to capsaicin. Here is the method:
Wistar derived male rats (275±25 g) were suppressed by CO2 overexposure. The vas deferens was removed, placed in Krebs solution, pH 7.4 (composition in g/l: NaCl 6.89, KCl 0.35, CaCl2 0.277, KH2PO4 0.163, MgSO4.7H2O 0.296, NaHCO3 2.1 glucose 1.8) and excess fat and connective tissue removed. The portion of the vas deferens closest to the prostate was cut in half and each half was placed under 1 g tension in a 10 ml bath containing Krebs solution at 32° C. The tissue was contracted by electrical field stimulation (EFS; 60% of maximum stimulation, 0.015 Hz, 0.5 ms in duration) and contractile responses were measured.

Experiment [5] has as its system IL-1α-induced PGE2 release. Kind of experiment: IL-1α-induced PGE2 release in human diploid lung fibroblasts (WI-38) (Assay 5). The note with it: Homo sapiens, WI-38 cells, IL-1α 1 nM, overnight. In kind it is cell-based. Summed up: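 WI-38 fibroblasts stimulated overnight at 37 °C with 1 nM IL-1α plus test compound at 3 and 30 μM in MEM with 10% FBS, pH 7.3; released PGE2 in supernatant quantified by radioimmunoassay as percent inhibition. Viability then checked by Alamar Blue, 4 h at 37 °C, fluorescence ex 530/em 590 nm.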

SMILES strings stand for the structures.

Chain of TRPV1 receptor (O35433 whole entry): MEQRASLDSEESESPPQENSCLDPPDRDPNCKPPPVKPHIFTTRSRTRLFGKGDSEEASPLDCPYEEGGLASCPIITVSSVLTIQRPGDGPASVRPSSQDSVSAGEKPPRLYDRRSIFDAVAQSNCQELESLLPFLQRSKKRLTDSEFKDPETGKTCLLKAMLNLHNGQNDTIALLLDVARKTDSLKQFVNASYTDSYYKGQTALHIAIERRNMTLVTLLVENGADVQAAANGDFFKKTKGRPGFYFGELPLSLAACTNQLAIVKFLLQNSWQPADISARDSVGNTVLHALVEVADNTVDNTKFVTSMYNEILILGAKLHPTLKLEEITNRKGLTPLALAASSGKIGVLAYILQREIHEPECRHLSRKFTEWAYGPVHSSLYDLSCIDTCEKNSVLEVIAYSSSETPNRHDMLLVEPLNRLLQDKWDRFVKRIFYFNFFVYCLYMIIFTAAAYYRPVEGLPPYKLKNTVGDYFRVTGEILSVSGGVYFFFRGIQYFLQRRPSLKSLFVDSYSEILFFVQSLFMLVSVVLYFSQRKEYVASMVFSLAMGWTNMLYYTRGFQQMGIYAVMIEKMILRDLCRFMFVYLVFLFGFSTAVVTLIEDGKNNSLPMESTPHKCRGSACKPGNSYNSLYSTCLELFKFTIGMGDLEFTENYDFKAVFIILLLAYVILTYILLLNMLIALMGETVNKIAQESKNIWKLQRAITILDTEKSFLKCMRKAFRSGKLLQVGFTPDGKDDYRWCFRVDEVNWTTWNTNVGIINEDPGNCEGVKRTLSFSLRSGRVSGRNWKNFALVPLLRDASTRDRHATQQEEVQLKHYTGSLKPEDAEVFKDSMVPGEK

Consider `COc1cc(CCC(=O)CC(=O)c2ccccc2)ccc1O` [Compound 69, 5-(4-Hydroxy-3-methoxyphenyl)-1-phenyl-pentane-1,3-dione], for which the inhibition at 3 µM in experiment [1] stood at 89%; in experiment [2], 9%; in experiment [3] it was 10%; in experiment [5] it was 89%. The inhibition at 30 µM in experiment [1] worked out at 96%; in experiment [2], 41%; in experiment [3] it was 34%; in experiment [5], 102%. Further, the Emax in experiment [4] worked out at 38%.

As for `COc1cc(CCC(=O)C(C)C(=O)c2ccccc2)ccc1O` (centres unmarked) [Compound 11, 5-(4-Hydroxy-3-methoxy-phenyl)-2-methyl-1-phenyl-pentane-1,3-dione], the inhibition at 3 µM came out at 47% in experiment [1], 0% in experiment [2], 8% in experiment [3] and 79% in experiment [5]. For the same molecule, the inhibition at 30 µM was 92% in experiment [1], 32% in experiment [2], 39% in experiment [3] and 100% in experiment [5]. Besides, the Emax in experiment [4] came out at 68%.

In the case of `COc1cc(CCC(=O)C(C)(C)C(=O)c2ccccc2)ccc1O` [Compound 32, 2,2-Dimethyl-5-(4-hydroxy-3-methoxy-phenyl)-1-phenyl-pentane-1,3-dione], the inhibition at 3 µM in experiment [1] turned out to be 45%; in experiment [2] it was 15%; in experiment [3], 13%; in experiment [5], 67%. Also, the inhibition at 30 µM in experiment [1] came out at 96%; in experiment [2], 89%; in experiment [3] it was 58%; in experiment [5], 101%.

Take `COc1cc(CCC(=O)CC(=O)C(C)(C)C)ccc1O` [Compound 2, 6,6-Dimethyl-1-(4-hydroxy-3-methoxyphenyl)-heptane-3,5-dione]: the inhibition at 3 µM came to 30% in experiment [1], 0% in experiment [2], 5% in experiment [3] and 88% in experiment [5]. The inhibition at 30 µM was 76% in experiment [1], 28% in experiment [2], 27% in experiment [3] and 102% in experiment [5]. Moreover, the Emax in experiment [4] was 96%.

For the molecule `COc1cc(CCC(=O)CC(=O)C2(C)CC2)ccc1O` [Compound 6, 5-(4-Hydroxy-3-methoxyphenyl)-1-(1-methylcyclopropyl)-pentane-1,3-dione], the inhibition at 3 µM in experiment [1] was 47%; in experiment [2], 0%; in experiment [3], -12%; in experiment [5], 88%. Further, the inhibition at 30 µM in experiment [1] worked out at 78%; in experiment [2], 12%; in experiment [3] it was 22%; in experiment [5], 102%. Further, in experiment [4], the Emax came to 24%.
